Assay results: patent publication US12138583B2, “Process for removal of acid gases from a fluid stream with a liquid absorbent comprising a piperazine ring” (BASF SE, priority 2019, dated 2024)
Where two headings read alike, the source gives them in different places.

Experiments:
Assay type in all cases: physicochemical
[1] = pKA value by titration with hydrochloric acid; settings: for pKa: aqueous solution, aqueous solution 0.005 mol amine per liter, HCl 0.1 mol/L; for pKa / Second pKA value (in words): 20° C.; for First pKA value (in words): at relatively low temperatures (20° C.)
[2] = Acid gas loading capacity: CO2 loading and stripping experiment; settings: for CO2 loading after loading / CO2 loading after stripping / Cyclic CO2 capacity: 30 wt.-% amine in water; for CO2 loading after loading: 40° C., ambient pressure, 8 L (STP)/h CO2, about 4 h; for CO2 loading after stripping: stripping at 80° C. with N2 8 L (STP)/h, 60 min; for Cyclic CO2 capacity: difference of loading after loading and after stripping; for Acid gas loading capacities (in words): CO2 and H2S, absorbents 30 wt.-% in water, compared with TBAEE and MDEA
Procedure: (§1) A loading experiment and subsequently a stripping experiment were conducted. A glass condenser, which was operated at 5° C., was attached to a glass cylinder with a thermostated jacket. Condensate obtained in the course of the experiment was returned to the glass cylinder so as to prevent distortion of the test results by partial evaporation of the absorbent.
(§2) The glass cylinder was initially charged with about 100 mL of unladen absorbent (30% by weight of amine in water). To determine the absorption capacity, at ambient pressure and 40° C., 8 L (STP)/h of CO2 or H2S were passed through the absorption liquid via a frit over a period of about 4 h. Subsequently, the loading of CO2 or H2S was determined as follows:
(§3) The determination of H2S was effected by titration with silver nitrate solution. For this purpose, the sample to be analyzed was weighed into an aqueous solution together with about 2% by weight of sodium acetate and about 3% by weight of ammonia. Subsequently, the H2S content was determined by a potentiometric turning point titration by means of silver nitrate. At the turning point, H2S is fully bound as Ag2S. The CO2 content was determined as total inorganic carbon (TOC-V Series Shimadzu).
(§4) The laden solution was stripped by heating an identical apparatus setup to 80° C., introducing the laden absorbent and stripping it by means of an N2 stream (8 L (STP)/h). After 60 min, a sample was taken and the CO2 or H2S loading of the absorbent was determined as described above.
(§5) The difference in the loading at the end of the loading experiment and the loading at the end of the stripping experiment gives the respective cyclic capacity.

[3] = Acid gas loading capacity: H2S loading and stripping experiment; settings: for H2S loading after loading / H2S loading after stripping / Cyclic H2S capacity: 30 wt.-% amine in water; for H2S loading after loading: 40° C., ambient pressure, 8 L (STP)/h H2S, about 4 h; for H2S loading after stripping: stripping at 80° C. with N2 8 L (STP)/h, 60 min; for Cyclic H2S capacity: difference of loading after loading and after stripping
Procedure: as §1, §2, §3, §4, §5

[4] = Thermal stability of aqueous amine solutions with and without acid gas loading; settings: 150° C., 125 h; for Ratio of Degradation Without Acid Gas Loading: closed cylinder, amine concentration by GC before and after; for Ratio of Degradation Without Acid Gas Loading / Ratio of Degradation With Acid Gas Loading: in water: MDEA 40, TBAP-MPIP 30, TBAE-MPIP 25, DEAE-EPIP 30 wt.-%; for Ratio of Degradation With Acid Gas Loading: 20 m^3 (STP)/tsolvent CO2 and 20 m^3 (STP)/tsolvent H2S
Procedure: The thermal stability of TBAP-MPIP (30 wt.-% in water) and TBAE-MPIP (25 wt.-% in water) was compared to both MDEA (40 wt.-% MDEA in water) and DEAE-EPIP (30 wt.-% DEAE-EPIP in water) with and without acid gas loading.
A cylinder (10 mL) was initially charged with the respective solution (8 mL) and the cylinder was closed. […] In the experiments conducted under acid gas loading, the acid gas loading of the solutions was 20 m^3 (STP)/tsolvent of CO2 and 20 m^3 (STP)/tsolvent of H2S. The decomposition level of the amines was calculated from the amine concentration measured by gas chromatography before and after the experiment.

[5] = Relative volatility: N2 passed through the absorbent, condensate analysed by GC and Karl Fischer titration; settings: for Amine (in condensate) / Water (in condensate) / Condensate: 30 wt.-% aqueous solution, 50° C., 8 h; for Amine (in condensate) / Water (in condensate): 30 L (STP)/h N2; for Amine (in condensate): GC; for Water (in condensate): Karl Fischer titration; for Condensate: 200 mL, 30 L (STP)/h N2, condenser 5° C.; for Volatility (in words): 30 wt.-% aqueous solutions
Procedure: The volatility of amines TBAP-MPIP and TBAE-MPIP in 30 wt.-% aqueous solutions was compared to that of amines M3ETB, MDEA and TBAEPY in 30% wt.-% aqueous solutions.
A glass condenser, which was operated at 5° C., was attached to a glass cylinder with a thermostated jacket. The glass cylinder was thermostated to 50° C., and 200 mL of the absorbent were introduced for each test. Over an experimental duration of 8 h, 30 L (STP)/h of N2 were passed through the absorbent at ambient pressure. For each amine, the test was conducted three times. The condensate was analyzed by means of GC and Karl Fischer titration.

pKa ([1]; read-out: pKA 1) | pKa ([1]; read-out: pKA 2) | pKa ([1]; read-out: pKA 3) | CO2 loading after loading [2] | CO2 loading after stripping [2] | Cyclic CO2 capacity [2] | H2S loading after loading [3] | H2S loading after stripping [3] | Cyclic H2S capacity [3] | Ratio of Degradation Without Acid Gas Loading [4] | Ratio of Degradation With Acid Gas Loading [4] | Amine (in condensate) [5] | Water (in condensate) [5] | Condensate [5] | Second pKA value (in words) [1] | First pKA value (in words) [1] | Volatility (in words) [5] | Structure (SMILES) | Cyclic H2S capacity (in words) ([3]; 30 wt.-% in water, comparison with TBAP-MPIP and TBAE-MPIP) | Acid gas loading capacities (in words) [2] | Stability in aqueous solutions (in words) [4]
10.3 | 8.61 | 6.2 | 1.48 mol CO2/molamine | 0.13 mol CO2/molamine | 1.35 mol CO2/molamine | 0.98 mol H2S/molamine | 0.31 mol H2S/molamine | 0.67 mol H2S/molamine | 1.00 | 0.77 |  |  |  |  |  |  | CCN(CC)CCN1CCN(CC)CC1 [DEAE-EPIP, 2-(4-ethylpiperazin-1-yl)ethyl-diethylamine, reference compound] | significantly lower than the capacity of both TBAP-MPIP and TBAE-MPIP |  | 
 |  |  | 0.97 mol CO2/molamine | 0.24 mol CO2/molamine | 0.73 mol CO2/molamine |  |  |  |  |  |  |  |  |  |  |  | CC(C)(C)NCCOCCO [TBAEE, 2-(2-tert-butylaminoethoxy)ethanol, reference compound] |  |  | 
 |  |  |  |  |  |  |  |  |  |  | 0.2 wt % | 99.5 wt % | 28.8 mL |  |  |  | CC(C)(C)NCCN1CCCC1=O [TBAEPY, 1-[2-(tert-butylamino)ethyl]pyrrolidin-2-one, reference compound] |  |  | 
 |  |  |  |  |  |  |  |  |  |  | 0.7 wt % | 99.2 wt % | 30.1 mL |  |  |  | COCCOCCOCCNC(C)(C)C [M3ETB, (2-(2-(2-tert-butylaminoethoxy)ethoxy)ethyl)methyl ether, reference compound] |  |  | 
10 | 8.82 | 5.47 | 1.46 mol CO2/molamine | 0.22 mol CO2/molamine | 1.24 mol CO2/molamine | 1.62 mol H2S/molamine | 0.35 mol H2S/molamine | 1.27 mol H2S/molamine | 1.00 | 0.88 | 0.7 wt % | 99.3 wt % | 29.28 mL | close to the pKa value of MDEA | high first pKA values | suitably low volatility | CN1CCN(CCNC(C)(C)C)CC1 [TBAE-MPIP, 2-(4-methylpiperazin-1-yl)ethyl-tert-butylamine] |  | significantly higher acid gas loading capacities than absorbents based on TBAEE and MDEA | comparable to MDEA, and higher than DEAE-EPIP
10.7 | 7.68 | 5.8 | 1.41 mol CO2/molamine | 0.70 mol CO2/molamine | 0.71 mol CO2/molamine | 1.48 mol H2S/molamine | 0.33 mol H2S/molamine | 1.15 mol H2S/molamine | 0.99 | 0.91 | 0.3 wt % | 99.7 wt % | 30.3 mL | close to the pKa value of MDEA | high first pKA values | suitably low volatility | CN1CCN(CCCNC(C)(C)C)CC1 [TBAP-MPIP, 3-(4-methylpiperazin-1-yl)propyl-tert-butylamine] |  | significantly higher acid gas loading capacities than absorbents based on TBAEE and MDEA | comparable to MDEA, and higher than DEAE-EPIP
